What was measured:
[1] = target: T1, β2-GPI (Homo sapiens, UniProt P02749); experiment: Ligand blotting analysis on a TLC plate; assay type: binding; details: detection by Cof-22 antibody and EY2C9 antibody; FIG. 1
T1 construct: β2-GPI was purified from plasma in healthy persons; from tissue; host or cells: pooled human plasma from healthy persons
T1 sequence (P02749 20-345): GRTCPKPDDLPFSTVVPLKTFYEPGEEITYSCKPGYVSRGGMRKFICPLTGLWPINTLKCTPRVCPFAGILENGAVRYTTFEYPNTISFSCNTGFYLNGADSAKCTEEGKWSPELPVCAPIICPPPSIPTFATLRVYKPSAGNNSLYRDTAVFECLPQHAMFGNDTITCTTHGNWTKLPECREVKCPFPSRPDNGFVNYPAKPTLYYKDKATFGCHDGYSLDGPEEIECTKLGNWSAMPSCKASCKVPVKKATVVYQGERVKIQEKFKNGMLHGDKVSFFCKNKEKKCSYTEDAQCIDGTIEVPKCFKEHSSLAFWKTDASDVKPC
Procedure: FIG. 1 is a graph showing ligand blotting analysis of two ω-carbdxylmutants (oxLig-1 and 9-COOH-22KC) of oxysterol ester. The ligand developed on a TLC plate was stained with I2 vapor (A), and the ligand blotting was conducted by using anti-β2-GPI antibody (Cof-22 (B) and EY2C9 (C)).
(5) Ligand Blotting Analysis on a Thin-Layer Chromatography (TLC) Plate
For conducting TLC ligand blotting, the lipid was spotted on a Polygram silica gel G plate (manufactured by Machery-Nagel) and developed with chloroform/methanol (8/1, v/v). The ligand blotting analysis was conducted according to a method described in [reference 7]. That is, the plate was dried and blocked with PBS containing 1% bovine serum albumin (BSA), and then the plate was incubated for 1 hour together with the β2-GPI and anti-β2-GPI antibodies (Cof-22 and EY2C9). Then, the plate was incubated for 1 hour with horseradish peroxidase (HRP)-labeled anti-mouse IgG antibody or anti-human IgM antibody. Between each step, the plate was washed sufficiently with PBS. Coloration was conducted using H2O2 and 4-methoxy-1-naphthol. In a TLC plate of control, the separated ligand was stained with I2 vapor.

[2] = target: T1, β2-GPI; experiment: ELISA using a plate coated with the ligand, β2-GPI binding detected by anti-β2-GPI antibody; details: immobilized lipid; for β2-GPI-binding(OD) w/Cof-22, value in parentheses / β2-GPI-binding(OD) w/EY2C9, value in parentheses / β2-GPI-binding(OD) w/WB-CAL-1, value in parentheses: not explained (method: presence or absence of β2-GPI); for β2-GPI-binding(OD) w/Cof-22: detection with Cof-22; for β2-GPI-binding(OD) w/Cof-22 / β2-GPI-binding(OD) w/EY2C9 / β2-GPI-binding(OD) w/WB-CAL-1: upper value of the pair; for β2-GPI-binding(OD) w/EY2C9: detection with EY2C9; for β2-GPI-binding(OD) w/WB-CAL-1: detection with WB-CAL-1
Procedure: (7) ELISA for Detection of Anti-β2-GPI/Lipid IgG Antibody
CL (derived from bovine heart, manufactured by Sigma), oxLig-1 or 9-COOH-22KC (50 μg/ml ethanol, 50 μl/well) was adsorbed by evaporation onto a polystyrene plate (Immulon 1B; Dynex Technologies Inc.), and this plate was blocked with 1% BSA. In each well, the purified monoclonal autoantibody or serum sample (100-fold dilution) was incubated for 1 hour in the presence or absence of β2-GPI (25 μg/ml), and then HRP-labeled anti-mouse IgG or anti-human IgG or IgM was added to each well.
The subsequent step was carried out according to the method described in the “ELISA for detection of β2-GPI/oxLDL complex”. The optical density (OD) of each sample was corrected by the average OD of the blank wells, and its antibody titer was calculated by using the positive standard in the living body. When the antibody titer in a sample was more than 3 times as high as the standard deviation of the mean of plasma samples from 50 healthy persons, the sample was expressed as positive.

Row | SMILES | β2-GPI binding in ligand blotting [1] | β2-GPI-binding(OD) w/Cof-22, value in parentheses [2] | β2-GPI-binding(OD) w/EY2C9, value in parentheses [2] | β2-GPI-binding(OD) w/WB-CAL-1, value in parentheses [2] | β2-GPI-binding(OD) w/Cof-22 [2] | β2-GPI-binding(OD) w/EY2C9 [2] | β2-GPI-binding(OD) w/WB-CAL-1 [2]
1 | CC(C)CCC[C@@H](C)[C@H]1CC[C@H]2[C@@H]3C(=O)C=C4C[C@@H](OC(=O)CCCCCCCCC(=O)O)CC[C@]4(C)[C@H]3CC[C@]12C [oxLig-1, 7-ketocholesteryl-9-carboxynonanoate] | bound predominantly | (0.041 +/− 0.001) OD | (0.013 +/− 0.001) OD | (0.013 +/− 0.004) OD | 1.194 +/− 0.099 OD | 0.878 +/− 0.031 OD | 0.441 +/− 0.007 OD
2 | CC(C)CCC(=O)[C@@H](C)[C@H]1CC[C@H]2[C@@H]3CC=C4C[C@@H](OC(=O)CCCCCCCCC(=O)O)CC[C@]4(C)[C@H]3CC[C@]12C [9-COOH-22KC, 22-Ketocholesteryl-9-carboxynonanoate] | – | (0.067 +/− 0.013) OD | (0.046 +/− 0.008) OD | (0.031 +/− 0.011) OD | 0.217 +/− 0.016 OD | 0.130 +/− 0.024 OD | 0.063 +/− 0.004 OD

From patent publication US7455976B2, “Method of measuring oxidized LDL/β2-glycoprotein I complex occurring in the living body” (priority 2002, dated 2008)
